Test results published in PubChem BioAssay (NCI).
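Interpolation was linear, between the two tested concentrations surrounding the appropriate level; five concentrations were tested over 48 hours in 96-well plates. Here, GI50 denotes the concentration required for 50% inhibition of growth. TGI: total growth inhibition.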

Columns and labels:
Assay in all cases: NCI-60 cell line screen, 48 h
786-0 renal = test system: 786-0 renal
A498 renal = test system: A498 renal
A549 NSCLC = test system: A549 NSCLC
ACHN renal = test system: ACHN renal
BT-549 breast = test system: BT-549 breast
CAKI-1 renal = test system: CAKI-1 renal
CCRF-CEM leukemia = test system: CCRF-CEM leukemia
COLO 205 colon = test system: COLO 205 colon
DU-145 prostate = test system: DU-145 prostate
EKVX NSCLC = test system: EKVX NSCLC
HCC-2998 colon = test system: HCC-2998 colon
HCT-116 colon = test system: HCT-116 colon
HCT-15 colon = test system: HCT-15 colon
HL-60(TB) leukemia = test system: HL-60(TB) leukemia
HOP-62 NSCLC = test system: HOP-62 NSCLC
HOP-92 NSCLC = test system: HOP-92 NSCLC
HS 578T breast = test system: HS 578T breast
HT29 colon = test system: HT29 colon
IGROV1 ovarian = test system: IGROV1 ovarian
K-562 leukemia = test system: K-562 leukemia
KM12 colon = test system: KM12 colon
LOX IMVI melanoma = test system: LOX IMVI melanoma
M14 melanoma = test system: M14 melanoma
MALME-3M melanoma = test system: MALME-3M melanoma
MCF7 breast = test system: MCF7 breast
MDA-MB-231 breast = test system: MDA-MB-231 breast
MDA-MB-435 = test system: MDA-MB-435
MOLT-4 leukemia = test system: MOLT-4 leukemia
NCI-H226 lung = test system: NCI-H226 lung

Structure (SMILES): CCN(CC)CCOc1ccc(/C=C2\CC3C4CC=C5C[C@@H](N6CCCC6)CC[C@]5(C)C4CC[C@]3(C)[C@H]2OC(C)=O)cc1OC (stereo not given in full)
- GI50 (786-0 renal): 635 nM
- TGI (786-0 renal): 1300 nM
- GI50 (A498 renal): 1960 nM
- TGI (A498 renal): 3460 nM
- GI50 (A549 NSCLC): 1640 nM
- TGI (A549 NSCLC): 3670 nM
- GI50 (ACHN renal): 791 nM
- TGI (ACHN renal): 1560 nM
- GI50 (BT-549 breast): 1800 nM
- TGI (BT-549 breast): 3520 nM
- GI50 (CAKI-1 renal): 1250 nM
- TGI (CAKI-1 renal): 2990 nM
- GI50 (CCRF-CEM leukemia): 197 nM
- TGI (CCRF-CEM leukemia): 457 nM
- GI50 (COLO 205 colon): 2040 nM
- TGI (COLO 205 colon): 4280 nM
- GI50 (DU-145 prostate): 1050 nM
- TGI (DU-145 prostate): 6070 nM
- GI50 (EKVX NSCLC): 1590 nM
- TGI (EKVX NSCLC): 3470 nM
- GI50 (HCC-2998 colon): 197 nM
- TGI (HCC-2998 colon): 647 nM
- GI50 (HCT-116 colon): 132 nM
- TGI (HCT-116 colon): 548 nM
- GI50 (HCT-15 colon): 1080 nM
- TGI (HCT-15 colon): 2450 nM
- GI50 (HL-60(TB) leukemia): 639 nM
- TGI (HL-60(TB) leukemia): 1770 nM
- GI50 (HOP-62 NSCLC): 899 nM
- TGI (HOP-62 NSCLC): 2270 nM
- GI50 (HOP-92 NSCLC): 152 nM
- TGI (HOP-92 NSCLC): 1880 nM
- GI50 (HS 578T breast): 1030 nM
- TGI (HS 578T breast): 2320 nM
- GI50 (HT29 colon): 144 nM
- TGI (HT29 colon): > 44100 nM
- TGI (IGROV1 ovarian): 1730 nM
- TGI (K-562 leukemia): > 36000 nM
- GI50 (KM12 colon): 99.7 nM
- TGI (KM12 colon): 1160 nM
- GI50 (LOX IMVI melanoma): 1030 nM
- TGI (LOX IMVI melanoma): 2400 nM
- GI50 (M14 melanoma): 133 nM
- TGI (M14 melanoma): 217 nM
- GI50 (MALME-3M melanoma): 579 nM
- TGI (MALME-3M melanoma): 1240 nM
- GI50 (MCF7 breast): 1210 nM
- GI50 (MDA-MB-231 breast): 1730 nM
- TGI (MDA-MB-231 breast): 3250 nM
- GI50 (MDA-MB-435): 277 nM
- TGI (MDA-MB-435): 745 nM
- GI50 (MOLT-4 leukemia): 91 nM
- TGI (MOLT-4 leukemia): 345 nM
- GI50 (NCI-H226 lung): 1260 nM
- TGI (NCI-H226 lung): 3300 nM
